Measured values published in patent US6916461B2, “Metal complexes that contain perfluoroalkyl, process for their production and their use in NMR diagnosis” (Schering AG, priority 1996, dated 2005).
Like-named read-outs stand apart in the source and are kept apart here.

Experiments:
[1] = rat, in vivo, iv; cited from earlier work
[2] = Lymph node visualization (MRT) after interstitial administration of the contrast medium; format: in vivo; details: guinea pigs, 120 minutes after s.c. 10 μmol of Gd/kg, T1-weighted spin echo (TR 400 ms, TE 15 ms)
Protocol: It was possible to confirm the special suitability of the compounds according to the invention in MR imaging studies in guinea pigs. Thus, 120 minutes after subcutaneous administration of 10 μmol/kg of body weight of a perfluorine-containing gadolinium complex (guinea pigs, hind paw, interdigital space) in T^1-weighted spin-echo images (TR 400 ms, TE 15 ms), a clear enhancement of the popliteal lymph nodes (270%) as well as the inguinal lymph nodes (104%) was observed (cf. Image 1).

[3] = Elimination of the contrast medium after i.p. administration (retention of metal in liver and remainder of the body); format: in vivo; details: rats, i.p. 100 μmol of total gadolinium/kg, 14 days p.i.
Text: After administration of a perfluorinated gadolinium complex according to the invention (100 μmol of total gadolinium/kg of body weight) in the intraperitoneal space of rats, the retention of metal in the liver as well as in the remainder of the body was examined 14 days after administration. In this test, fluorine-containing compound 2c) was used. After 14 days p.i., the gadolinium concentration was 0.22% of the administered dose in the liver and 1.1% of the administered dose in the remainder of the body.

[4] = T1-relaxivity with Minispec pc 20 (20 MHz, 0.47T) at 37° C. in water and human plasma; format: physicochemical; details: for T1-relaxivity: 20 MHz; for R^1 [L/mmol * sec] at 0.47 T and 37° C. Plasma / R^1 [L/mmol * sec] at 0.47 T and 37° C. Water: T1-relaxivity, Minispec pc 20 (20 MHz, 0.47 T); for R^1 [L/mmol * sec] at 0.47 T and 37° C. Plasma: in human plasma; for R^1 [L/mmol * sec] at 0.47 T and 37° C. Water: in water
Protocol: The relaxivity of the following compounds was determined with a Minispec pc 20 (20 MHz, 0.47T) at 37° C. in water and human plasma and compared to that of Gd-DTPA-polylysine and Magnevist^(R) as comparison substances.

[5] = Blood elimination kinetics of contrast media in rats after one-time intravenous administration; format: in vivo, rats (Han Wistar, Schering SPF); details: for distribution volume Vss, MEAN / elimination half-life Tβ, MEAN / total clearance CLtot, MEAN: one-time i.v., Dy-DTPA 100 μmol Dy/kg (n=3), Example 1c 50 μmol Gd/kg (n=2), TOPFIT 2.0
Protocol: The blood elimination kinetics of contrast media was examined in rats (Han Wistar, Schering SPF, ≈250 g of body weight). For this purpose, after one-time intravenous administration (via a caudal vein) of the substances (dose: 50-100 μmol of Me per kg of body weight), the substance concentration in the blood (based on the Gd or Dy content) was determined over a period of up to 300 minutes p.i. with the aid of ICP-AES. The pharmacokinetic parameters: distribution volume (Vss), total clearance (CLtot) and elimination half-life (tβ) were calculated with a special computer program (TOPFIT 2.0; Thomae, Schering, Gödecke), whereby a one- or two-compartment distribution model was used as a basis.
FIG. 1 represents elimination from the blood (in % of the injected dose) of Dy-DTPA (dose: 100 μmol of Dy per kg of body weight, n=3) and of the fluorine compounds of Example 1c according to the invention (dose: 50 μmol of Gd per kg of body weight, n=2) after one-time intravenous administration of substances in rats (Han Wistar, Schering SPF, ≈250 g of body weight).
The Gd and Dy contents in the blood were determined with the aid of ICP-AES.

[6] = T1-relaxivity, from Invest. Radiol. 1992, 346, cited from earlier work

| Compound | T1-relaxivity ([4]; human plasma) [L/mmol/s] | T1-relaxivity ([4]; water) [L/mmol/s] | R^1 [L/mmol * sec] at 0.47 T and 37° C. Plasma [4] [L/mmol/s] | R^1 [L/mmol * sec] at 0.47 T and 37° C. Water [4] [L/mmol/s] | also measured |
| --- | --- | --- | --- | --- | --- |
| albumin-Gd-DTPA |  |  |  |  | concentration in the liver tissue [1]: ~30 % of the dose |
| O=C([O-])CN(CCN(CC(=O)[O-])CC(=O)[O-])CCN(CC(=O)[O-])CC(=O)[O-].[Dy+3].[Na+].[Na+] [Dy-DTPA, reference compound] |  |  |  |  | distribution volume Vss, MEAN [5]: 0.17 L/kg; elimination half-life Tβ, MEAN [5]: 14.98 min; total clearance CLtot, MEAN [5]: 0.556 L/h/kg |
| CCN(CC(=O)NCC(O)CN1CCN(CC(=O)[O-])CCN(CC(=O)[O-])CCN(CC(=O)[O-])CC1)S(=O)(=O)C(F)(F)C(F)(F)C(F)(F)C(F)(F)C(F)(F)C(F)(F)C(F)(F)C(F)(F)F.[Gd+3] (stereo not drawn) [Example 1c, Gadolinium Complex of 10-[2-hydroxy-4-aza-5-oxo-7aza-7-(perfluorooctylsulfonyl)-nonyl]-1,4,7-tris(carboxymethyl)-1,4,7,10-tetraazacyclododecane] | 49 | 41 | 49 | 41 | distribution volume in comparison to Dy-DTPA ([5]; i.v.): smaller distribution volume; elimination from the blood in comparison to Dy-DTPA ([5]; i.v.): considerably slower elimination from the blood; distribution volume Vss, MEAN [5]: 0.14 L/kg; elimination half-life Tβ, MEAN [5]: 95.01 min; total clearance CLtot, MEAN [5]: 0.0642 L/h/kg |
| polylysine-Gd-DTPA |  |  |  |  | R^1 [L/mmol * sec] at 0.47 T and 37° C. Plasma ([6]; in plasma): 16.8 L/mmol/s; R^1 [L/mmol * sec] at 0.47 T and 37° C. Water ([6]; in water): 13.1 L/mmol/s |
| CCN(CC(=O)NCC(O)CN1CCN(CC(=O)[O-])CCN(CC(=O)[O-])CCN(CC(=O)[O-])CC1)S(=O)(=O)C(F)(F)C(F)(F)C(F)(F)C(F)(F)C(F)(F)C(F)(F)C(F)(F)C(F)(F)F.[Mn+2].[Na+] (stereo not drawn) [Example 1e, Manganese complex of 10-[2-hydroxy-4-aza-5-oxo-7-aza-7-(perfluorooctylsulfonyl)-nonyl]-1,4,7-tris(carboxymethyl)-1,4,7,10-tetraazacyclododecane (as sodium salt)] | 4.2 | 2.7 |  |  |  |
| CNC[C@H](O)[C@@H](O)[C@H](O)[C@H](O)CO.CNC[C@H](O)[C@@H](O)[C@H](O)[C@H](O)CO.O=C([O-])CN(CCN(CC(=O)[O-])CC(=O)O)CCN(CC(=O)[O-])CC(=O)O.[Gd+3] [Magnevist, reference compound] |  |  | 4.8 | 3.8 |  |

Now from value to compound, other results behind:

| T1-relaxivity ([4]; human plasma) [L/mmol/s] | T1-relaxivity ([4]; water) [L/mmol/s] | R^1 [L/mmol * sec] at 0.47 T and 37° C. Plasma [4] [L/mmol/s] | R^1 [L/mmol * sec] at 0.47 T and 37° C. Water [4] [L/mmol/s] | Compound | also measured |
| --- | --- | --- | --- | --- | --- |
| 33 | 19 | 33 | 19 | O=C([O-])CN1CCN(CC(=O)[O-])CCN(CC(O)CNC(=O)COCCC(F)(F)C(F)(F)C(F)(F)C(F)(F)C(F)(F)C(F)(F)C(F)(F)C(F)(F)F)CCN(CC(=O)[O-])CC1.[Gd+3] (stereo not drawn) [Example 2c, Gadolinium complex of 10-[2-hydroxy-4-aza-5-oxo-7-oxa-10,10,11,11,12,12,13,13,14,14,15,15,16,16,17,17,17-heptadecafluoroheptadecyl]-1,4,7-tris(carboxymethyl)-1,4,7,10-tetraazacyclododecane] | signal in the popliteal and inguinal lymph nodes of the injected side vs non-injected side or precontrast image [2]: strong signal rise; gadolinium concentration in the liver [3]: 0.22 % of the administered dose; gadolinium concentration in the remainder of the body [3]: 1.1 % of the administered dose |
| 27.5 | 15.2 | 27.5 | 15.2 | O=C([O-])CN1CCN(CC(=O)[O-])CCN(CC(O)COCCC(F)(F)C(F)(F)C(F)(F)C(F)(F)C(F)(F)C(F)(F)C(F)(F)C(F)(F)F)CCN(CC(=O)[O-])CC1.[Gd+3] (stereo not drawn) [Example 3c, Gadolinium complex of 10-[-2hydroxy-4-oxa-1H,1H,2H,3H,3H,5H,5H,6H,6H-perfluorotetradecyl]-1,4,7-tris(carboxymethyl)-1,4,7,10-tetraazacyclododecane] |  |
